One experiment has as its target hT2R8 (Homo sapiens (Human), UniProt Q9NYW2). Briefly: hT2R8 antagonist high-throughput FLIPR assay, stable cell line with G16g44, agonist andrographolide. Format: cell-based. The conditions noted are these: Table A; read-out: hT2R8 IC50. From the text:
After a ligand is identified for a particular hT2R, a HEK293 cell line stably expressing both the hT2R and G16gust44 are generated, facilitating future screening assays to identify other ligands that activate the particular hT2R or which modulate (block or enhance) the activation of this hT2R by another bitter ligand such as a bitter compound contained in coffee. This avoids the need for transient transfection.
To identify antagonists, cell lines stably expressing hT2R8 and hT2R14, respectively, together with the promiscuous chimeric G16g44 protein were generated as described in previous patent applications. A high-throughput assay was established using the stable cell lines and FLIPR (Fluorescent Imaging Plate Reader). An agonist of hT2R8 or hT2R14 was used to activate the receptors up to 70-80% of their respective maximal activity. For hT2R8, the agonist used was andrographolide (200 […]); for hT2R14, it was aristolochic acid (3 μM). To identify antagonists, compounds with diverse chemical structures were added together with the agonist.
To identify antagonists, cell lines stably expressing hT2R8 together with the promiscuous chimeric G16g44 protein were generated as described in previous patent applications. A high-throughput assay was established using the stable cell lines and FLIPR (Fluorescent Imaging Plate Reader). An agonist of hT2R8 was used to activate the receptors up to 70-80% of their respective maximal activity. For hT2R8, the agonist used was andrographolide (200 μM). To identify antagonists, compounds with diverse chemical structures were added together with the agonist.
Sequence of hT2R8 (Q9NYW2 whole entry): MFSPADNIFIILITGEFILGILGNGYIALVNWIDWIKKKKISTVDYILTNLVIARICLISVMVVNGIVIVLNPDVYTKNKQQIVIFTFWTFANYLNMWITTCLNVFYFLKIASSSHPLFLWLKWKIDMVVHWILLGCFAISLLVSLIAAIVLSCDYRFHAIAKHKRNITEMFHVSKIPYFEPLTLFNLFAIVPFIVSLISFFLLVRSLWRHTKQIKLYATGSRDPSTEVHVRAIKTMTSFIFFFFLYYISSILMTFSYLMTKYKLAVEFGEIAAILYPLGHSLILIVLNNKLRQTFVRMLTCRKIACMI
For `COc1ccc(C(=O)Nc2cnn(Cc3c(C)noc3C)c2)cc1` [Example 4-17, N-(1-((3,5-dimethylisoxazol-4-yl)methyl)-1H-pyrazol-4-yl)-4-methoxybenzamide], the IC50 (in general, the concentration at which inhibition is half-maximal) turned out to be 260 nM.

For `COc1cc(OC)cc(C(=O)Nc2cnn(Cc3c(C)noc3C)c2)c1` [Example 4-18, N-(1-((3,5-dimethylisoxazol-4-yl)methyl)-1H-pyrazol-4-yl)-3,5-dimethoxybenzamide], the IC50 is 280 nM.

As for `COc1ccccc1C(=O)Nc1cnn(Cc2c(C)noc2C)c1` [Example 4-19, N-(1-((3,5-dimethylisoxazol-4-yl)methyl)-1H-pyrazol-4-yl)-2-methoxybenzamide], the 50% inhibitory concentration (IC50) worked out at 390 nM.

`COc1cc(C(=O)Nc2cnn(Cc3c(C)noc3C)c2)ccc1O` [Example 4-20, N-(1-((3,5-dimethylisoxazol-4-yl)methyl)-1H-pyrazol-4-yl)-4-hydroxy-3-methoxybenzamide]: the IC50 was determined as 480 nM.

Take `COc1ccc(C(=O)Nc2cnn(Cc3c(C)noc3C)c2)cc1OC` [Example 4-21, N-(1-((3,5-dimethylisoxazol-4-yl)methyl)-1H-pyrazol-4-yl)-3,4-dimethoxybenzamide]: the IC50 is 560 nM.

Turning to `Cc1noc(C)c1Cn1cc(NC(=O)c2ccc(F)cc2)cn1` [Example 4-23, N-(1-((3,5-dimethylisoxazol-4-yl)methyl)-1H-pyrazol-4-yl)-4-fluorobenzamide], the IC50 is 1560 nM.

Turning to `Cc1noc(C)c1Cn1cc(NC(=O)c2ccccc2)cn1` [Example 4-24, N-(1-((3,5-dimethylisoxazol-4-yl)methyl)-1H-pyrazol-4-yl)benzamide], the IC50 was determined as 2620 nM.

In the case of `COc1cccc(C(=O)Nc2cnn(Cc3c(C)noc3C)c2)c1OC` [Example 4-25, N-(1-((3,5-dimethylisoxazol-4-yl)methyl)-1H-pyrazol-4-yl)-2,3-dimethoxybenzamide], the IC50 is 610 nM.

As to `Cc1noc(C)c1Cn1cc(NC(=O)c2cccc(S(C)(=O)=O)c2)cn1` [Example 4-26, N-(1-((3,5-dimethylisoxazol-4-yl)methyl)-1H-pyrazol-4-yl)-3-(methylsulfonyl)benzamide], the IC50 is 720 nM.

Consider `COc1ccc(O)c(C(=O)Nc2cnn(Cc3c(C)noc3C)c2)c1` [Example 4-27, N-(1-((3,5-dimethylisoxazol-4-yl)methyl)-1H-pyrazol-4-yl)-2-hydroxy-5-methoxybenzamide], for which the IC50 came to 980 nM.

Take `Cc1cccc(C(=O)Nc2cnn(Cc3c(C)noc3C)c2)c1` [Example 4-28, N-(1-((3,5-dimethylisoxazol-4-yl)methyl)-1H-pyrazol-4-yl)-3-methylbenzamide]: the IC50 was found to be 570 nM.

Consider `COc1cccc(CC(=O)Nc2cnn(Cc3c(C)noc3C)c2)c1OC` [Example 4-31, 2-(2,3-dimethoxyphenyl)-N-(1-((3,5-dimethylisoxazol-4-yl)methyl)-1H-pyrazol-4-yl)acetamide], for which the IC50 was 800 nM.

As to `COc1cc(CC(=O)Nc2cnn(Cc3c(C)noc3C)c2)cc(OC)c1` [Example 4-32, 2-(3,5-dimethoxyphenyl)-N-(1-((3,5-dimethylisoxazol-4-yl)methyl)-1H-pyrazol-4-yl)acetamide], the IC50 worked out at 960 nM.

As to `COc1ccc(CC(=O)Nc2cnn(Cc3c(C)noc3C)c2)cc1` [Example 4-33, N-(1-((3,5-dimethylisoxazol-4-yl)methyl)-1H-pyrazol-4-yl)-2-(4-methoxyphenyl)acetamide], the IC50 worked out at 990 nM.

Consider `COc1ccccc1CC(=O)Nc1cnn(Cc2c(C)noc2C)c1` [Example 4-35, N-(1-((3,5-dimethylisoxazol-4-yl)methyl)-1H-pyrazol-4-yl)-2-(2-methoxyphenyl)acetamide], for which the IC50 worked out at 1160 nM.

For `CCC(C(=O)Nc1cnn(Cc2c(C)noc2C)c1)c1ccccc1` (stereo not shown) [Example 4-37, N-(1-((3,5-dimethylisoxazol-4-yl)methyl)-1H-pyrazol-4-yl)-2-phenylbutanamide], the IC50 came out at 500 nM.

For `CC(=O)OC(C(=O)Nc1cnn(Cc2c(C)noc2C)c1)c1ccccc1` (stereo not shown) [Example 4-39, 2-(1-((3,5-dimethylisoxazol-4-yl)methyl)-1H-pyrazol-4-ylamino)-2-oxo-1-phenylethyl acetate], the IC50 was 830 nM.

For `Cc1noc(C)c1Cn1cc(NC(=O)C(CO)c2ccccc2)cn1` (stereo not shown) [Example 4-40, N-(1-((3,5-dimethylisoxazol-4-yl)methyl)-1H-pyrazol-4-yl)-3-hydroxy-2-phenylpropanamide], the IC50 is 960 nM.

With `Cc1noc(C)c1Cn1cc(NC(=O)[C@H](C)c2ccccc2)cn1` [Example 4-42, (R)-N-(1-((3,5-dimethylisoxazol-4-yl)methyl)-1H-pyrazol-4-yl)-2-phenylpropanamide], the IC50 was determined as 3720 nM.

`COC(C(=O)Nc1cnn(Cc2c(C)noc2C)c1)c1ccccc1` (stereo not shown) [Example 4-43, N-(1-((3,5-dimethylisoxazol-4-yl)methyl)-1H-pyrazol-4-yl)-2-methoxy-2-phenylacetamide]: the IC50 worked out at 3430 nM.

Turning to `Cc1noc(C)c1Cn1cc(NC(=O)C(c2ccccc2)c2ccccc2)cn1` [Example 4-44, N-(1-((3,5-dimethylisoxazol-4-yl)methyl)-1H-pyrazol-4-yl)-2,2-diphenylacetamide], the IC50 was 5190 nM.

Consider `Cc1c[nH]c(C(=O)Nc2cnn(Cc3c(C)noc3C)c2)c1` [Example 4-45, N-(1-((3,5-dimethylisoxazol-4-yl)methyl)-1H-pyrazol-4-yl)-4-methyl-1H-pyrrole-2-carboxamide], for which the IC50 is 720 nM.

For `Cc1noc(C)c1Cn1cc(NC(=O)c2cccnc2)cn1` [Example 4-46, N-(1-((3,5-dimethylisoxazol-4-yl)methyl)-1H-pyrazol-4-yl)nicotinamide], the IC50 is 1050 nM.

Consider `Cc1cccc(C(=O)Nc2cnn(Cc3c(C)noc3C)c2)n1` [Example 4-48, N-(1-((3,5-dimethylisoxazol-4-yl)methyl)-1H-pyrazol-4-yl)-6-methylpicolinamide], for which the IC50 worked out at 1950 nM.

Take `Cc1noc(C)c1Cn1cc(NC(=O)c2cccn2C)cn1` [Example 4-49, N-(1-((3,5-dimethylisoxazol-4-yl)methyl)-1H-pyrazol-4-yl)-1-methyl-1H-pyrrole-2-carboxamide]: the half-maximal inhibitory concentration (IC50) came out at 3400 nM.

As to `Cc1noc(C)c1Cn1cc(NC(=O)c2ccncc2)cn1` [Example 4-50, N-(1-((3,5-dimethylisoxazol-4-yl)methyl)-1H-pyrazol-4-yl)isonicotinamide], the concentration for half-maximal inhibition (IC50) is 4590 nM.

On to `Cc1noc(C)c1Cn1cc(NC(=O)c2ccoc2C)cn1` [Example 4-51, N-(1-((3,5-dimethylisoxazol-4-yl)methyl)-1H-pyrazol-4-yl)-2-methylfuran-3-carboxamide], for which the IC50 was found to be 7870 nM.

Consider `Cc1cc(C(=O)Nc2cnn(Cc3c(C)noc3C)c2)n(C)n1` [Example 4-52, N-(1-((3,5-dimethylisoxazol-4-yl)methyl)-1H-pyrazol-4-yl)-1,3-dimethyl-1H-pyrazole-5-carboxamide], for which the IC50 stood at 18000 nM.

Still in this experiment, the particulars now being: read-out: IC50 on hT2R8 bitter receptor.
For `Cc1noc(C)c1Cn1cc(NC(=O)c2ccc3c(c2)OCO3)cn1` [Example 4-8, N-(1-((3,5-dimethylisoxazol-4-yl)methyl)-1H-pyrazol-4-yl)benzo[d][1,3]dioxole-5-carboxamide], the IC50 amounted to 200 nM.

Turning to `COc1ccc(OC)c(C(=O)Nc2cnn(Cc3c(C)noc3C)c2)c1` [Example 4-9, N-(1-((3,5-dimethylisoxazol-4-yl)methyl)-1H-pyrazol-4-yl)-2,5-dimethoxybenzamide], the IC50 turned out to be 170 nM.

Take `Cc1noc(C)c1Cn1cc(NC(=O)c2cccc(C#N)c2)cn1` [Example 4-10, 3-cyano-N-(1-((3,5-dimethylisoxazol-4-yl)methyl)-1H-pyrazol-4-yl)benzamide]: the IC50 was determined as 200 nM.

In the case of `Cc1noc(C)c1Cn1cc(NC(=O)C2(c3ccccc3)CC2)cn1` [Example 4-11, N-(1-((3,5-dimethylisoxazol-4-yl)methyl)-1H-pyrazol-4-yl)-1-phenylcyclopropanecarboxamide], the IC50 is 250 nM.

Consider `Cc1noc(C)c1Cn1cc(NC(=O)CC(C)c2ccccc2)cn1` (stereo not shown) [Example 4-12, N-(1-((3,5-dimethylisoxazol-4-yl)methyl)-1H-pyrazol-4-yl)-3-phenylbutanamide], for which the IC50 came out at 280 nM.

Turning to `Cc1noc(C)c1Cn1cc(NC(=O)c2ccc[nH]2)cn1` [Example 4-13, N-(1-((3,5-dimethylisoxazol-4-yl)methyl)-1H-pyrazol-4-yl)-1H-pyrrole-2-carboxamide], the IC50 was found to be 570 nM.

For `Cc1noc(C)c1Cn1cc(NC(=O)CC2CCCCC2)cn1` [Example 4-14, 2-cyclohexyl-N-(1-((3,5-dimethylisoxazol-4-yl)methyl)-1H-pyrazol-4-yl)acetamide], the IC50 came to 730 nM.

For the compound `Cc1noc(C)c1Cn1cc(NC(=O)/C=C/c2ccccc2)cn1` [Example 4-15, N-(1-((3,5-dimethylisoxazol-4-yl)methyl)-1H-pyrazol-4-yl)cinnamamide], the IC50 is 700 nM.

Still in this experiment, the particulars now being: table after Example 10-97; read-out: hT2R8 IC50.
Regarding “1-((1,3-dimethyl-1H-pyrazol-4-yl)methyl)-3-(1-((3,5-dimethylisoxazol-4-yl)methyl)-1H-pyrazol-4-yl) imidazolidine-2,4-dione [Example 10-90]”, the IC50 worked out at 215 nM.

Source of the values: patent publication US9247759B2, “Identification of human T2R receptors that respond to bitter compounds that elicit the bitter taste in compositions, and the use thereof in assays to identify compounds that inhibit (block) bitter taste in compositions and use thereof” (SENOMYX, INC., priority 2007, dated 2016).
